Test results taken from patent publication US6355785B1, “Guanosine-rich oligonucleotide integrase inhibitors” (Aronex Pharmaceuticals, Inc., priority 1993, dated 2002).
Several values for one entry are separate records, joined by “and”; a condition that tells them apart may be missing. Equal entries are not always repeated. Where two headings read alike, the source gives them in different places.

Legend:
[1] = tested on: HIV-1 strains (SKI, RF, DV, IIIB, ADP/141); assay: microbe, parasite or virus in culture; assay type: cell-based; conditions: for IC90: read-out: IC90 (cpe assay)
[2] = tested on: HIV-1 infected PBMCs

5′-gtggtgggtgggtgggt-3′ [T30177] (GTGGTGGGTGGGTGGGT; phosphorothioate termini, further chemistry not given here)
increase in IC50 when MOI of HIV-1RF changed from 0.01 to 1.28 ([1]; CEM-SS): 14 fold
IC50 ([1]; HIV-1 DV, SUP T1, read-out: IC50 virus production): 60 ± 4 nM
IC50 ([1]; HIV-1 IIIB, AA5, read-out: IC50 virus production): < 320 nM
IC50 ([1]; HIV-1 IIIB, CEM-SS or MT4, read-out: Antiviral Assay IC50 IIIB): 2830 nM
IC50 ([1]; HIV-1 IIIB, CEM-SS, read-out: IC50 virus production): 2800 nM and 2830 nM
IC50 ([1]; HIV-1 IIIB, MT2, read-out: IC50 virus production): 1940 ± 120 nM
IC50 ([1]; HIV-1 IIIB, MT4, read-out: IC50 virus production): 150 ± 20 nM
TI (therapeutic index) ([1]; HIV-1RF in MT2 cells): 226
IC50 ([1]; HIV-1 RF, CEM-SS or MT4, read-out: Antiviral Assay IC50 RF): 75 nM
IC50 ([1]; HIV-1 RF, CEM-SS, MOI 0.01, read-out: IC50 virus production): 75 nM
IC50 ([1]; HIV-1 RF, MT4, read-out: IC50 virus production): 37 ± 30 nM
TI (therapeutic index) ([1]; HIV-1SKI in CEM-SS cells): 3680
IC50 ([1]; HIV-1 SKI, CEM-SS or MT4, read-out: Antiviral Assay IC50 SKI): 25 nM
IC50 ([1]; HIV-1 SKI, CEM-SS, MOI 0.01, read-out: IC50 virus production): 25 ± 6 nM
IC50 ([1]; HIV-1 SKI, MT2, read-out: IC50 virus production): 60 ± 1 nM
IC50 ([1]; IIIB (MT4), MOI 0.01, read-out: IC50 (cpe assay)): 2700 nM
IC90 ([1]; IIIB (MT4), MOI 0.01): 9200 nM
IC50 ([1]; IIIB (MT4), MOI 0.02, read-out: IC50 (cpe assay)): 3100 nM
IC90 ([1]; IIIB (MT4), MOI 0.02): 6600 nM
IC50 ([1]; IIIB (MT4), MOI 0.3, read-out: IC50 (cpe assay)): 3380 nM
IC90 ([1]; IIIB (MT4), MOI 0.3): 7000 nM
IC50 ([1]; IIIB (MT4), MOI 1, read-out: IC50 (cpe assay)): 6800 nM
IC90 ([1]; IIIB (MT4), MOI 1): 26000 nM
IC50 ([1]; RF (CEM-SS), MOI 0.01, read-out: IC50 (cpe assay)): 200 nM
IC90 ([1]; RF (CEM-SS), MOI 0.01): 500 nM
IC50 ([1]; RF (CEM-SS), MOI 0.02, read-out: IC50 (cpe assay)): 410 nM
IC90 ([1]; RF (CEM-SS), MOI 0.02): 1500 nM
IC90 ([1]; RF (CEM-SS), MOI 0.04): 1560 nM
IC50 ([1]; RF (CEM-SS), MOI 0.08, read-out: IC50 (cpe assay)): 700 nM
IC90 ([1]; RF (CEM-SS), MOI 0.08): 1560 nM
IC50 ([1]; RF (CEM-SS), MOI 0.16, read-out: IC50 (cpe assay)): 870 nM
IC90 ([1]; RF (CEM-SS), MOI 0.16): 1600 nM
IC50 ([1]; RF (CEM-SS), MOI 0.32, read-out: IC50 (cpe assay)): 1250 nM
IC90 ([1]; RF (CEM-SS), MOI 0.32): 4700 nM
IC50 ([1]; RF (CEM-SS), MOI 0.64, read-out: IC50 (cpe assay)): 2640 nM
IC90 ([1]; RF (CEM-SS), MOI 0.64): 4750 nM
IC50 ([1]; RF (CEM-SS), MOI 1.28, read-out: IC50 (cpe assay)): 2810 nM
IC90 ([1]; RF (CEM-SS), MOI 1.28): 4770 nM
IC50 ([1]; anti-HIV-1 virus production, read-out: Cell Culture IC50): 75 nM
% CD4 ([2]; IIIB, drug 0.1 μM, day 7): 1%
% CD8 ([2]; IIIB, drug 0.1 μM, day 7): 98%
CD4/CD8 Ratio ([2]; IIIB, drug 0.1 μM, day 7): 0.01
% CD4 ([2]; IIIB, drug 1.0 μM): 18%
% CD8 ([2]; IIIB, drug 1.0 μM): 85%
CD4/CD8 Ratio ([2]; IIIB, drug 1.0 μM): 0.21
% CD4 ([2]; IIIB, drug 5.0 μM): 27%
% CD8 ([2]; IIIB, drug 5.0 μM): 83%
CD4/CD8 Ratio ([2]; IIIB, drug 5.0 μM): 0.33
% CD4 ([2]; IIIB, drug 10.0 μM): 27%
% CD8 ([2]; IIIB, drug 10.0 μM): 83%
CD4/CD8 Ratio ([2]; IIIB, drug 10.0 μM): 0.33
% CD4 ([2]; MN, drug 0.1 μM): 5%
% CD8 ([2]; MN, drug 0.1 μM): 95%
CD4/CD8 Ratio ([2]; MN, drug 0.1 μM): 0.05
% CD4 ([2]; MN, drug 1.0 μM): 18%
% CD8 ([2]; MN, drug 1.0 μM): 86%
CD4/CD8 Ratio ([2]; MN, drug 1.0 μM): 0.21
% CD4 ([2]; MN, drug 5.0 μM): 25%
% CD8 ([2]; MN, drug 5.0 μM): 81%
CD4/CD8 Ratio ([2]; MN, drug 5.0 μM): 0.31
% CD4 ([2]; MN, drug 10.0 μM): 26%
% CD8 ([2]; MN, drug 10.0 μM): 80%
CD4/CD8 Ratio ([2]; MN, drug 10.0 μM): 0.33
% CD4 ([2]; N. Amer. #1, drug 0.1 μM): 21%
% CD8 ([2]; N. Amer. #1, drug 0.1 μM): 84%
CD4/CD8 Ratio ([2]; N. Amer. #1, drug 0.1 μM): 0.25
% CD4 ([2]; N. Amer. #1, drug 1.0 μM): 26%
% CD8 ([2]; N. Amer. #1, drug 1.0 μM): 80%
CD4/CD8 Ratio ([2]; N. Amer. #1, drug 1.0 μM): 0.33
% CD4 ([2]; N. Amer. #1, drug 5.0 μM): 27%
% CD8 ([2]; N. Amer. #1, drug 5.0 μM): 81%
CD4/CD8 Ratio ([2]; N. Amer. #1, drug 5.0 μM): 0.33
% CD4 ([2]; N. Amer. #1, drug 10.0 μM): 29%
% CD8 ([2]; N. Amer. #1, drug 10.0 μM): 81%
CD4/CD8 Ratio ([2]; N. Amer. #1, drug 10.0 μM): 0.36
% CD4 ([2]; N. Amer. #2, drug 0.1 μM): 4%
% CD8 ([2]; N. Amer. #2, drug 0.1 μM): 98%
CD4/CD8 Ratio ([2]; N. Amer. #2, drug 0.1 μM): 0.04
% CD4 ([2]; N. Amer. #2, drug 1.0 μM): 5%
% CD8 ([2]; N. Amer. #2, drug 1.0 μM): 95%
CD4/CD8 Ratio ([2]; N. Amer. #2, drug 1.0 μM): 0.05
% CD4 ([2]; N. Amer. #2, drug 5.0 μM): 28%
% CD8 ([2]; N. Amer. #2, drug 5.0 μM): 82%
CD4/CD8 Ratio ([2]; N. Amer. #2, drug 5.0 μM): 0.34
% CD4 ([2]; N. Amer. #2, drug 10.0 μM): 27%
% CD8 ([2]; N. Amer. #2, drug 10.0 μM): 84%
CD4/CD8 Ratio ([2]; N. Amer. #2, drug 10.0 μM): 0.32
% CD4 ([2]; RF, drug 0.1 μM): 10%
% CD8 ([2]; RF, drug 0.1 μM): 92%
CD4/CD8 Ratio ([2]; RF, drug 0.1 μM): 0.11
% CD4 ([2]; RF, drug 1.0 μM): 26%
% CD8 ([2]; RF, drug 1.0 μM): 82%
CD4/CD8 Ratio ([2]; RF, drug 1.0 μM): 0.32
% CD4 ([2]; RF, drug 5.0 μM): 31%
% CD8 ([2]; RF, drug 5.0 μM): 83%
CD4/CD8 Ratio ([2]; RF, drug 5.0 μM): 0.37
% CD4 ([2]; RF, drug 10.0 μM): 29%
% CD8 ([2]; RF, drug 10.0 μM): 85%
CD4/CD8 Ratio ([2]; RF, drug 10.0 μM): 0.34
% CD4 ([2]; SE Asia isolate, drug 0.1 μM): 2%
% CD8 ([2]; SE Asia isolate, drug 0.1 μM): 99%
CD4/CD8 Ratio ([2]; SE Asia isolate, drug 0.1 μM): 0.02
% CD4 ([2]; SE Asia isolate, drug 1.0 μM): 12%
% CD8 ([2]; SE Asia isolate, drug 1.0 μM): 90%
CD4/CD8 Ratio ([2]; SE Asia isolate, drug 1.0 μM): 0.13
% CD4 ([2]; SE Asia isolate, drug 5.0 μM): 29%
% CD8 ([2]; SE Asia isolate, drug 5.0 μM): 82%
CD4/CD8 Ratio ([2]; SE Asia isolate, drug 5.0 μM): 0.35
% CD4 ([2]; SE Asia isolate, drug 10.0 μM): 29%
% CD8 ([2]; SE Asia isolate, drug 10.0 μM): 82%
CD4/CD8 Ratio ([2]; SE Asia isolate, drug 10.0 μM): 0.35
